We go through 23 compounds from patent US20160326142A1, “PYRAZOLE CARBOXAMIDE COMPOUNDS, COMPOSITIONS AND METHODS OF USE” (Genentech, Inc., priority 2012, published 2016).

pKi: −log10 of the molar value.

For this test, the target named is T1, ITK (Homo sapiens, UniProt Q08881).
T1 construct: purchased Invitrogen PV3875
T1 sequence (Q08881 1-620): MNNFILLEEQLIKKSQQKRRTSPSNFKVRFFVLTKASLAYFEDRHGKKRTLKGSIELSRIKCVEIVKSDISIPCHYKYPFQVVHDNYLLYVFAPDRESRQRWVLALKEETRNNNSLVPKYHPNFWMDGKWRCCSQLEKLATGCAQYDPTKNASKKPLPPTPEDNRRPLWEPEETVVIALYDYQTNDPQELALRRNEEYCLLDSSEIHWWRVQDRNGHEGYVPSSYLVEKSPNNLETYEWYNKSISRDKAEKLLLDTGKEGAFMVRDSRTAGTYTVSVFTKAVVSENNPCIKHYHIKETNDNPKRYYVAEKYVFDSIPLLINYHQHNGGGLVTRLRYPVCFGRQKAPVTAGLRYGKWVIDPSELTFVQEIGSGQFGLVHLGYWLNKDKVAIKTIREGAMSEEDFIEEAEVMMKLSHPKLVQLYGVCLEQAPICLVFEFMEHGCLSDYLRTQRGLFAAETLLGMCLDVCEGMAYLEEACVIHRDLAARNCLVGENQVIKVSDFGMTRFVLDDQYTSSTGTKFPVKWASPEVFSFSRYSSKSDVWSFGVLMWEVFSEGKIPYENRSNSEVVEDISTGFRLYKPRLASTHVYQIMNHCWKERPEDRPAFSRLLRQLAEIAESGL
Description: ITK enzyme assay (Caliper or LCMS peptide phosphorylation). The settings on record: purified ITK (Invitrogen PV3875), 20 μM ATP, Ki by Morrison's quadratic equation. The format is biochemical. How it is done:
The ability of purified ITK (Invitrogen PV3875) to catalyze peptide phosphorylation is monitored using a Caliper LabChip 3000 microfluidic unit (Caliper assay) or by liquid chromatography-mass spectrometry (LCMS) using a Waters Acquity system (LCMS assay). […] Reactions are quenched by the addition of 2,2′,2″,2′″-(ethane-1,2-diyldinitrilo)tetraacetic acid (50 mM final). Non-phosphorylated substrate and phosphorylated product peptides are separated and quantified using a Caliper LabChip 3000 instrument. […] Reactions are quenched by the addition of trichloroacetic acid (5% v/v final). Non-phosphorylated substrate and phosphorylated product peptides are separated by ultra performance LC and detected by a coupled triple quadrupole MS device applying multiple reaction monitoring (MRM) for quantification. The area of the MRM-extracted mass signal is used to assess the inhibition by test compounds. Equilibrium dissociation constant (Ki) values for ITK inhibitors are calculated from plots of activity vs. inhibitor concentration using Morrison's quadratic equation that accounts for the potential of tight binding, and by also applying the conversion factor that accounts for competitive inhibition and the concentration of ATP used in the assay relative to its apparent Michaelis constant (Km,app).
Regarding `Cn1cc(C(c2ccccc2)n2cc(NC(=O)c3n[nH]c4c3CC3CC3C4)cn2)cn1` (single isomer, unassigned) [Example 27a, N-(1-((1-methyl-1H-pyrazol-4-yl)(phenyl)methyl)-1H-pyrazol-4-yl)-1,4,4a,5,5a,6-hexahydro cyclopropa[f]indazole-3-carboxamide], the pKi was 7.52. Next, `Cn1cc(C(c2ccccc2)n2cc(NC(=O)c3n[nH]c4c3CC3CC3C4)cn2)cn1` (single isomer, unassigned) [Example 27b, N-(1-((1-methyl-1H-pyrazol-4-yl)(phenyl)methyl)-1H-pyrazol-4-yl)-1,4,4a,5,5a,6-hexahydro cyclopropa[f]indazole-3-carboxamide]: 7.96; `Cn1cc(C(c2ccccc2)n2cc(NC(=O)c3n[nH]c4c3CC3CC3C4)cn2)cn1` (single isomer, unassigned) [Example 27c, N-(1-((1-methyl-1H-pyrazol-4-yl)(phenyl)methyl)-1H-pyrazol-4-yl)-1,4,4a,5,5a,6-hexahydro cyclopropa[f]indazole-3-carboxamide]: 7.35. In the case of `Cn1cc(C(c2ccccc2)n2cc(NC(=O)c3n[nH]c4c3CC3CC3C4)cn2)cn1` (single isomer, unassigned) [Example 27d, N-(1-((1-methyl-1H-pyrazol-4-yl)(phenyl)methyl)-1H-pyrazol-4-yl)-1,4,4a,5,5a,6-hexahydro cyclopropa[f]indazole-3-carboxamide] it was 7.02; in that of `CN(C)CCC(c1ccccc1)n1cc(NC(=O)c2n[nH]c3c2CC2CC2C3)cn1` (single isomer, unassigned) [Example 28a, N-(1-(3-(dimethylamino)-1-phenylpropyl)-1H-pyrazol-4-yl)-1,4,4a,5,5a,6-hexahydrocyclopropa[f]indazole-3-carboxamide], 7.80; in that of `CN(C)CCC(c1ccccc1)n1cc(NC(=O)c2n[nH]c3c2CC2CC2C3)cn1` (single isomer, unassigned) [Example 28b, N-(1-(3-(dimethylamino)-1-phenylpropyl)-1H-pyrazol-4-yl)-1,4,4a,5,5a,6-hexahydrocyclopropa[f]indazole-3-carboxamide], 8.22.

`CN(C)CCC(c1ccccc1)n1cc(NC(=O)c2n[nH]c3c2CC2CC2C3)cn1` (single isomer, unassigned) [Example 28c, N-(1-(3-(dimethylamino)-1-phenylpropyl)-1H-pyrazol-4-yl)-1,4,4a,5,5a,6-hexahydrocyclopropa[f]indazole-3-carboxamide] gave a pKi of 6.81. In turn, `CN(C)CCC(c1ccccc1)n1cc(NC(=O)c2n[nH]c3c2CC2CC2C3)cn1` (single isomer, unassigned) [Example 28d, N-(1-(3-(dimethylamino)-1-phenylpropyl)-1H-pyrazol-4-yl)-1,4,4a,5,5a,6-hexahydrocyclopropa[f]indazole-3-carboxamide] showed a negative-log Ki (pKi) of 7.01. In the case of `CN(C)CCC(c1cccc(C(F)(F)F)c1)n1cc(NC(=O)c2n[nH]c3c2CCC(C)(C)C3)cn1` (single isomer, unassigned) [Example 30a, N-(1-(3-(dimethylamino)-1-(3-(trifluoromethyl)phenyl)propyl)-1H-pyrazol-4-yl)-6,6-dimethyl-4,5,6,7-tetrahydro-1H-indazole-3-carboxamide] it was 8.70; in that of `CN(C)CCC(c1cccc(C(F)(F)F)c1)n1cc(NC(=O)c2n[nH]c3c2CCC(C)(C)C3)cn1` (single isomer, unassigned) [Example 30b, N-(1-(3-(dimethylamino)-1-(3-(trifluoromethyl)phenyl)propyl)-1H-pyrazol-4-yl)-6,6-dimethyl-4,5,6,7-tetrahydro-1H-indazole-3-carboxamide], 8.40. In the case of `CC1(C)CCc2c(C(=O)Nc3cnn(C(c4ccccc4)C4CNC4)c3)n[nH]c2C1` (single isomer, unassigned) [Example 34a, N-(1-(azetidin-3-yl(phenyl)methyl)-1H-pyrazol-4-yl)-6,6-dimethyl-4,5,6,7-tetrahydro-1H-indazole-3-carboxamide] it was 8.52; in that of `CC1(C)CCc2c(C(=O)Nc3cnn(C(c4ccccc4)C4CNC4)c3)n[nH]c2C1` (single isomer, unassigned) [Example 34b, N-(1-(azetidin-3-yl(phenyl)methyl)-1H-pyrazol-4-yl)-6,6-dimethyl-4,5,6,7-tetrahydro-1H-indazole-3-carboxamide], 9.15. In the case of `Cn1cc(C(c2ccccc2)n2cc(NC(=O)c3n[nH]c4c3C3CC3CC4)cn2)cn1` (single isomer, unassigned) [Example 35a, N-(1-((1-methyl-1H-pyrazol-4-yl)(phenyl)methyl)-1H-pyrazol-4-yl)-3,4,5,5a,6,6a-hexahydro cyclopropa[e]indazole-1-carboxamide] it was 7.89; in that of `Cn1cc(C(c2ccccc2)n2cc(NC(=O)c3n[nH]c4c3C3CC3CC4)cn2)cn1` (single isomer, unassigned) [Example 35b, N-(1-((1-methyl-1H-pyrazol-4-yl)(phenyl)methyl)-1H-pyrazol-4-yl)-3,4,5,5a,6,6a-hexahydro cyclopropa[e]indazole-1-carboxamide], 8.70; in that of `Cn1cc(C(c2ccccc2)n2cc(NC(=O)c3n[nH]c4c3C3CC3CC4)cn2)cn1` (single isomer, unassigned) [Example 35c, N-(1-((1-methyl-1H-pyrazol-4-yl)(phenyl)methyl)-1H-pyrazol-4-yl)-3,4,5,5a,6,6a-hexahydro cyclopropa[e]indazole-1-carboxamide], 6.66. For the compound `Cn1cc(C(c2ccccc2)n2cc(NC(=O)c3n[nH]c4c3C3CC3CC4)cn2)cn1` (single isomer, unassigned) [Example 35d, N-(1-((1-methyl-1H-pyrazol-4-yl)(phenyl)methyl)-1H-pyrazol-4-yl)-3,4,5,5a,6,6a-hexahydro cyclopropa[e]indazole-1-carboxamide], the negative-log Ki (pKi) was 6.72. In the case of `CC(=O)N1CC(C(c2ccccc2)n2cc(NC(=O)c3n[nH]c4c3CCC(C)(C)C4)cn2)C1` (single isomer, unassigned) [Example 37a, N-(1-((1-acetylazetidin-3-yl)(phenyl)methyl)-1H-pyrazol-4-yl)-6,6-dimethyl-4,5,6,7-tetrahydro-1H-indazole-3-carboxamide] it was 7.85; in that of `CC(=O)N1CC(C(c2ccccc2)n2cc(NC(=O)c3n[nH]c4c3CCC(C)(C)C4)cn2)C1` (single isomer, unassigned) [Example 37b, N-(1-((1-acetylazetidin-3-yl)(phenyl)methyl)-1H-pyrazol-4-yl)-6,6-dimethyl-4,5,6,7-tetrahydro-1H-indazole-3-carboxamide], 8.70; in that of `CN1CC(C(c2ccccc2)n2cc(NC(=O)c3n[nH]c4c3CCC(C)(C)C4)cn2)C1` (single isomer, unassigned) [Example 38a, 6,6-dimethyl-N-(1-((1-methylazetidin-3-yl)(phenyl)methyl)-1H-pyrazol-4-yl)-4,5,6,7-tetrahydro-1H-indazole-3-carboxamide], 8.40. Turning to `CN1CC(C(c2ccccc2)n2cc(NC(=O)c3n[nH]c4c3CCC(C)(C)C4)cn2)C1` (single isomer, unassigned) [Example 38b, 6,6-dimethyl-N-(1-((1-methylazetidin-3-yl)(phenyl)methyl)-1H-pyrazol-4-yl)-4,5,6,7-tetrahydro-1H-indazole-3-carboxamide], the pKi is 9.30. In the case of `CNCCC(c1ccccc1)n1cc(NC(=O)c2n[nH]c3c2CCC(C)(C)C3)cn1` (single isomer, unassigned) [Example 39a, 6,6-dimethyl-N-(1-(3-(methylamino)-1-phenylpropyl)-1H-pyrazol-4-yl)-4,5,6,7-tetrahydro-1H-indazole-3-carboxamide] it was 9.15; in that of `CNCCC(c1ccccc1)n1cc(NC(=O)c2n[nH]c3c2CCC(C)(C)C3)cn1` (single isomer, unassigned) [Example 39b, 6,6-dimethyl-N-(1-(3-(methylamino)-1-phenylpropyl)-1H-pyrazol-4-yl)-4,5,6,7-tetrahydro-1H-indazole-3-carboxamide], 8.22; in that of `CC1(C)CCc2c(C(=O)Nc3cnn(C(CCN)c4ccccc4)c3)n[nH]c2C1` (single isomer, unassigned) [Example 42a, N-(1-(3-amino-1-phenylpropyl)-1H-pyrazol-4-yl)-6,6-dimethyl-4,5,6,7-tetrahydro-1H-indazole-3-carboxamide], 8.00.
